What was measured:
purified PDE1A enzyme [1] = target: T1, purified PDE1A enzyme (Homo sapiens, UniProt P54750); assay: In vitro PDE1A assay, dose response (Biomol Cyclic Nucleotide Phosphodiesterase Assay Kit, colorimetric); assay type: biochemical; settings: for IC50: 100 μM cAMP, 45 min at 37° C., 8 points from 20 μM, duplicate
Outline: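 Purified PDE1A with 100 μM cAMP and 5′-nucleotidase, incubated 45 min at 37° C in Tris 20 mM pH 7.4 with calmodulin, MgCl2 and CaCl2; released phosphate read by malachite-green absorbance at 615 nm. Duplicate 8-point ⅓ dilutions from 20 μM in 1% DMSO; 10 μM vardenafil defines 100% inhibition.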

purified PDE1A enzyme [2] = target: T1, purified PDE1A enzyme; assay: In vitro PDE1A primary screening assay (Cisbio cAMP dynamic htrf kit); assay type: biochemical; settings: 100 nM cAMP; for inhibition at 10 µM: read-out: inhibition of PDE1A (control compounds, primary screening)
Text: For the primary screening, an assay using the cAMP dynamic htrf kit from Cisbio (catnr 62AM2PEB) was used. Its principle is based on HTRF® technology (Homogeneous Time-Resolved Fluorescence). The method is a competitive immunoassay between native cAMP and the cAMP labeled with XL665. The tracer binding is visualized by a monoclonal antibody against cAMP, labeled with Cryptate. The specific signal (i.e. energy transfer) is inversely proportional to the concentration of cAMP in the sample (see FIG. 1).
For the enzymatic reaction a mix of 20 μL is made with purified PDE1A enzyme, 100 nM cAMP and the compound (10 μM in a final concentration of 1% DMSO) in a black 384-plate. The reaction buffer is Tris 20 mM pH 7.4, 4 μg/mL calmodulin, 3 mM MgCl2, 1.5 mM CaCl2, 0.2 mg/mL BSA and 0.001% Brij-35. After an incubation of 30 minutes at room temperature, the reaction is stopped by the addition of 10 μL labelled cAMP-XL665 and 10 μL anti-cAMP-Cryptate. After 1 hour incubation at room temperature, the readout is performed on the Envision (excitation 360 nm; emission donor 615 nm emission acceptor 665 nm).
PDE1A hydrolyses cAMP into 5′AMP; this low cAMP concentration will result in a high signal. A PDE1A inhibitor will result in a decrease of the signal.
As a positive control we used 10 μM Vardenafil (100% inhibition), as negative control is used 1% DMSO (0% inhibition), as variable control 10 μM Zaprinast (+/−50% inhibition) is used and as negative control compound 10 μM Ro-20-1724 (0% inhibition). The positive and negative control were used to calculate z′ and PIN values.
All compounds were screened in single at 10 μM. The hit criterium was set at PIN 50 (50% inhibition).

SMILES | IC50 (purified PDE1A enzyme [1]) | further results
CN(CCC(C)(C)C)c1nc2c(C(C)(C)C)nn(C)c2c(=O)[nH]1 [Example 111, 3-tert-butyl-5-((3,3-dimethylbutyl)(methyl)amino)-1-methyl-1H-pyrazolo[4,3-d]pyrimidin-7(6H)-one] | < 100 nM | –
CCCc1nn(C)c2c(=O)[nH]c(N(C)CC(C)CC)nc12 (stereo not shown) [Example 112, 1-methyl-5-(methyl(2-methylbutyl)amino)-3-propyl-1H-pyrazolo[4,3-d]pyrimidin-7(6H)-one] | 101 to 500 nM | –
CCCc1nn(C)c2c(=O)[nH]c(N(Cc3cccc(N4CCOCC4)c3)CC(C)CCC)nc12 (stereo not shown) [Example 113, 1-methyl-5-((2-methylpentyl)(3-morpholinobenzyl)amino)-3-propyl-1H-pyrazolo[4,3-d]pyrimidin-7(6H)-one] | < 100 nM | –
CCCc1nn(C)c2c(=O)[nH]c(N(Cc3cccc(N4CCOCC4)c3)CC(C)CC)nc12 (stereo not shown) [Example 114, 1-methyl-5-((2-methylbutyl)(3-morpholinobenzyl)amino)-3-propyl-1H-pyrazolo[4,3-d]pyrimidin-7(6H)-one] | < 100 nM | –
CCCC(C)CN(C)c1nc2c(C(C)(C)C)nn(C)c2c(=O)[nH]1 (stereo not shown) [Example 115, 3-tert-butyl-1-methyl-5-(methyl(2-methylpentyl)amino)-1H-pyrazolo[4,3-d]pyrimidin-7(6H)-one] | < 100 nM | –
CCCc1nn(C)c2c(=O)[nH]c(N(Cc3cccc(-n4cncn4)c3)CC(C)CC)nc12 (stereo not shown) [Example 116] | < 100 nM | –
CCC(C)CN(Cc1cccc(N2CCOCC2)c1)c1nc2c(C(C)(C)C)nn(C)c2c(=O)[nH]1 (stereo not shown) [Example 117, 3-tert-butyl-1-methyl-5-((2-methylbutyl)(3-morpholinobenzyl)amino)-1H-pyrazolo[4,3-d]pyrimidin-7(6H)-one] | < 100 nM | –
CCC(C)CN(Cc1cccc(-n2cncn2)c1)c1nc2c(C(C)(C)C)nn(C)c2c(=O)[nH]1 (stereo not shown) [Example 118] | < 100 nM | –
CCCc1nn(C)c2c(=O)[nH]c(N(Cc3cccc(-n4cccn4)c3)CC(C)(C)C)nc12 [Example 119] | < 100 nM | –
CCCc1nn(C)c2c(=O)[nH]c(NCc3ccc(S(N)(=O)=O)cc3)nc12 [Example 120, 4-((1-methyl-7-oxo-3-propyl-6,7-dihydro-1H-pyrazolo[4,3-d]pyrimidin-5-ylamino)methyl)benzenesulfonamide] | > 500 nM | –
CCC(CC)CN(Cc1cccc(-n2cccn2)c1)c1nc2c(C(C)(C)C)nn(C)c2c(=O)[nH]1 [Example 121] | < 100 nM | –
CCCC(C)CN(Cc1cccc(-n2cccn2)c1)c1nc2c(C(C)(C)C)nn(C)c2c(=O)[nH]1 (stereo not shown) [Example 122] | < 100 nM | –
CCCc1nn(C)c2c(=O)[nH]c(N(C)CC(C)CCC)nc12 (stereo not shown) [Example 123, 1-methyl-5-(methyl(2-methylpentyl)amino)-3-propyl-1H-pyrazolo[4,3-d]pyrimidin-7(6H)-one] | 101 to 500 nM | –
CCn1nc(C(C)(C)C)c2nc(N(Cc3cccc(N4CCOCC4)c3)CC(C)C)[nH]c(=O)c21 [Example 124, 3-tert-butyl-1-ethyl-5-(isobutyl(3-morpholinobenzyl)amino)-1H-pyrazolo[4,3-d]pyrimidin-7(6H)-one] | > 500 nM | –
CCCN(CCC)c1nc2c(C3CC3)nn(C)c2c(=O)[nH]1 [Example 125, 3-cyclopropyl-5-(dipropylamino)-1-methyl-1H-pyrazolo[4,3-d]pyrimidin-7(6H)-one] | 101 to 500 nM | –
CCCCOc1cc(CC2CNC(=O)N2)ccc1OC (stereo not shown) [Ro-20-1724] | – | inhibition of PDE1A (control compounds, primary screening) (purified PDE1A enzyme [2]; 10 μM): 0%
CCCc1nc(C)c2c(=O)[nH]c(-c3cc(S(=O)(=O)N4CCN(CC)CC4)ccc3OCC)nn12 [Vardenafil, reference compound] | – | inhibition at 10 µM (purified PDE1A enzyme [2]): 100%; inhibition at 10 µM (purified PDE1A enzyme [1]; 10 μM, read-out: inhibition of PDE1A (positive control, dose response assay)): 100%
CCCOc1ccccc1-c1nc2nn[nH]c2c(=O)[nH]1 [Zaprinast] | – | inhibition at 10 µM (purified PDE1A enzyme [2]): ~50%
